Experiments:
[1] = compared with arteether and artemether; cited from earlier work
MCF-7 cells = assay: Percentage of survival of MCF-7 cells by LDH content; type: cell-based; conditions: 72 hours; for survival of MCF-7 cells, therapeutic administered individually: dosed once or multiple times (re-dosing at 24 and 48 h); for percent of survival of MCF-7 cells, administered more than once: re-dosing at 24 and 48 h; for percent of survival of MCF-7 cells, administered more than once / effect on percent of survival of MCF-7 cells, dosed singly: without Artesunate; for effect on percent of survival of MCF-7 cells, dosed singly: single dose
Protocol: To assess the effect of Artesunate in combination with several other therapeutics, MCF-7 cells were treated with different concentrations of these therapeutic compounds either once or through repeated dosing. The percentage of survival was calculated based on the LDH contents of cells. 1. 100 ul of cells suspension […]) were added to each well (3000 cells/well), with a total of 5 plates were seeded. […] [table] The appropriate volume of 100% Ethanol was added to Artesunate to obtain a concentration of 10 mg/ml. This was further diluted in 100% Ethanol to 1 mg/ml (1:10). 4 ug/ml was obtained by diluting 1 mg/ml (1:250) in complete medium. Further double decreasing dilutions were carried out in complete medium containing 0.4% Ethanol. […] This was further diluted in complete medium to 16 mM (1:6.25). Further double decreasing dilutions were carried out in complete medium. 2 mg of MMC were resuspended in 4 ml of sterile water to obtain a stock at 0.5 mg/ml. A second dilution of MMC was carried out by diluting 0.5 mg/ml in complete medium to 0.1 mg/ml (1:5). 4. Once the treatments were ready, 50 ul/well of Artesunate was added to the plates. […] 5. 50 ul of complete medium at 0.4% Ethanol and 50 ul of just complete medium were added to the corresponding control wells already containing either 100 ul of cells (positive control) or just 100 ul of complete medium (background control) 6. 100 ul of MMC at 100 ug/ml was added to the corresponding wells already containing 100 ul of cells in complete medium as a negative control and finally, plates were placed in the incubator. […] Media was removed from the wells by using a multichannel pipette. Wells were washed with 200 ul/well of PBS previously warmed at 37° C. 100 ul of Titron 1× in PBS previously warmed at 37° C. were added to the wells. Subsequently, the plate was placed at 37° C. in the dark for 45 min. 50 ul from each well was transferred to a non sterile 96-well plate. 50 ul of LDH substrate were added to each well of the non sterile plate already containing 50 ul/well of lysed cells and the plates were then incubating at room temperature in the dark for 30 min. 50 ul of Stop solution was added to each well and then the plate was read at 492 nm. 8. After 48 h of cells treatment, one of the 2 plates that had been re-dosed after 24 h was re-dosed again (treatments were prepared as described above for re-dosing). One of the 2 plates that had been treated just once will remain as it was in the incubator. The remaining 2 plates were used to measure the % of survival by LDH after 48 h of single treatment and after re-dosing at 24 h (LDH assay was performed as described above). Day 3: LDH-72 h and LDH-Re-Dosing at 24 h and at 48 h After 72 h of cells treatment, there were just 2 plates left in the incubator. They were used to measure the of survival by LDH after 72 h of single treatment and after re-dosing at 24 h and 48 h (LDH assay was performed as described above).

[2] = test system: human leukemia HL60 cells; conditions: cited from earlier work
[3] = test system: human pancreatic cancer BxPC-3 cells; conditions: cited from earlier work
[4] = test system: ovarian cancer cell lines; conditions: cited from earlier work
[5] = test system: human pancreatic cancer AsPC-1 cells; conditions: cited from earlier work
[6] = cited from earlier work
metastatic breast cancer = assay: Case reports: patients with metastatic breast cancer (CAT scan, symptoms, survival); type: in vivo, human; conditions: single patient
Excerpt: A patient comprising a person was diagnosed by their physician with advanced metastatic breast cancer. The metastatic breast cancer consisted of tumors, including several found in both lungs. The physician prescribed a standard set of cancer therapeutics in an attempt to reduce or maintain the tumors. […] The physician placed the patient on a paliative care regime and provided the patient with several doses of the aromatase inhibitor, letrazole. […] The patient was next administered a treatment consisting of artemether at a dose of 40 mg OD, presented in a lipid filled capsule comprising tributyrin and G43.
A patient comprising a person was diagnosed by their physician with extensive metastaic breast cancer. The patient presented with tumors in brain liver and lungs. The patient also presented with symptoms that included shortness of breath and a persistent cough. The patient informed the physician that they would not take part in a standard chemotherapy treatment protocol. The physician informed the patient that they would only live for about three months survival. The patient was instead administered artemether at a dose of 40 mg OD, presented as a lipid filled capsule comprising tributyrin and G43. As a result of the treatment, the symptoms the patient suffered from, including, shortness of breath and a persistent cough diminished over the weeks following treatment with arthemether. […]

Structure (SMILES): C[C@H]1[C@@H](OCc2ccc(C(=O)O)cc2)O[C@@H]2O[C@@]3(C)CC[C@H]4[C@H](C)CC[C@@H]1[C@@]24OO3 [Artelinic acid]
- rate of neurotoxicity [1]: lower rate of neurotoxicity than the related artemisin derivatives arteether and artemether

Structure (SMILES): C[C@H]1[C@H](OC(=O)CCC(=O)O)O[C@@H]2O[C@@]3(C)CC[C@H]4[C@H](C)CC[C@@H]1[C@@]24OO3 [Artesunate]
- survival of MCF-7 cells, therapeutic administered individually (MCF-7 cells): decreased the survival of MCF-7 cells

Structure (SMILES): O=c1c(-c2ccc(O)cc2)coc2cc(O)ccc12 [Daidzein]
- percent of survival of MCF-7 cells, administered more than once (MCF-7 cells): decreasing marginally
- effect on percent of survival of MCF-7 cells, dosed singly (MCF-7 cells): only minimal effect

Structure (SMILES): Oc1ccc([C@H]2COc3cc(O)ccc3C2)cc1 [Equol]
- percent of survival of MCF-7 cells, administered more than once (MCF-7 cells): decreasing marginally
- effect on percent of survival of MCF-7 cells, dosed singly (MCF-7 cells): only minimal effect

Structure (SMILES): Oc1ccc(C=Cc2cc(O)cc(O)c2)cc1 [Resveratrol]
- percent of survival of MCF-7 cells, administered more than once (MCF-7 cells): decreasing marginally
- effect on percent of survival of MCF-7 cells, dosed singly (MCF-7 cells): only minimal effect

Structure (SMILES): CCCC(=O)[O-].[Na+] [Sodium Butyrate]
- survival of MCF-7 cells, therapeutic administered individually (MCF-7 cells): decreased the survival of MCF-7 cells

Structure (SMILES): CO[C@H]1O[C@@H]2O[C@@]3(C)CC[C@H]4[C@H](C)CC[C@@H]([C@H]1C)[C@@]24OO3 [artemether, (+)-(3-alpha,5a-beta,6-beta,8a-beta, 9-alpha,12-beta,12aR)-decahydro-10-methoxy-3,6,9-trimethyl-3,12-epoxy-12H-pyrano(4,3-j)-1,2-benzodioxepin]
- cytotoxicity (apoptosis, G2 cell cycle arrest) [2]: dose- and time-dependent cytotoxicity
- cytotoxicity (apoptosis, G2 cell cycle arrest) [3]: dose- and time-dependent cytotoxicity
- cytotoxicity (apoptosis, G2 cell cycle arrest) [4]: dose- and time-dependent cytotoxicity
- cytotoxicity (apoptosis, G2 cell cycle arrest) [5]: dose- and time-dependent cytotoxicity

Structure (SMILES): C[C@@H]1CC[C@H]2[C@@H](C)C(=O)O[C@@H]3O[C@@]4(C)CC[C@@H]1[C@]32OO4 [artemisinin]
- bioavailability [6]: poor bioavailability

Structure (SMILES): N#Cc1ccc(C(c2ccc(C#N)cc2)n2cncn2)cc1 [letrazole]
- tumor progression (CAT scan) (metastatic breast cancer; after several doses of the aromatase inhibitor on palliative care): progressing
- growth of one tumor in a lung (metastatic breast cancer; in three months, after several doses of the aromatase inhibitor): 50%

From patent US11026956B2, “Cancer drug and uses” (Health Clinics Limited, priority 2013, dated 2021)
